From BindingDB's records for doi:10.7270/Q2VH5M8G (Nmmlsc, 2010)

biological target: T1, Regulator of G-protein signaling 16 (Homo sapiens, UniProt O15492); test: small molecules altering RGS16 interaction with Galphao – biochemical, multiplexed bead flow cytometry, SAR compounds, SAR follow-up (AID 2298); settings: not given
T1 sequence (O15492 whole entry): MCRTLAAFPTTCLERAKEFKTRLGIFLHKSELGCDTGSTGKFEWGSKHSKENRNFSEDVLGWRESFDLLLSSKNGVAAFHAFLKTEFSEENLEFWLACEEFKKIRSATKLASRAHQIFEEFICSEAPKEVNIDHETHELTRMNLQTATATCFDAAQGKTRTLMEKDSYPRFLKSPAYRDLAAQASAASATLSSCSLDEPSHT

| Structure (SMILES) | EC50 |
| --- | --- |
| CN1CCN(C2=C(Cl)C(=O)C(c3cnc(N4CCCCC4)s3)=C(Cl)C2=O)CC1 | 27 nM |
| CCN=c1scc(C)n1N=Cc1ccc(O)c(O)c1O | 1050 nM |
| CCN(CC)S(=O)(=O)c1cccc(C(=O)NN=Cc2ccc(O)c(O)c2O)c1 | 590 nM |
| Cc1[nH]n(-c2ccccc2)c(=S)c1C=NCCCN=Cc1c(C)[nH]n(-c2ccccc2)c1=S | 405 nM |
| Cc1cccc(N2CCN(C(=O)COc3nsc4nc(C)cc(C)c34)CC2C)c1 (configuration not stated) | 1430 nM |
| Cc1cccc(N2CCN(C(=O)Cn3ccc4nc(C)cc(C)c4c3=O)CC2C)c1 (configuration not stated) [2,4-dimethyl-6-[2-[3-methyl-4-(3-methylphenyl)piperazin-1-yl]-2-oxidanylidene-ethyl]-1,6-naphthyridin-5-one] | > 30000 nM |
| Cc1cc(C)c2c(=O)n(CC(=O)N3CCN(c4ccccc4)CC3)ccc2n1 [2,4-dimethyl-6-[2-oxidanylidene-2-(4-phenylpiperazin-1-yl)ethyl]-1,6-naphthyridin-5-one] | 18 nM |
| Cc1cc(C)c2c(n1)CCN(CC(=O)N1CCN(c3ccccc3)CC1)C2=O [2,4-dimethyl-6-[2-oxidanylidene-2-(4-phenylpiperazin-1-yl)ethyl]-7,8-dihydro-1,6-naphthyridin-5-one] | > 30000 nM |
| O=c1c2ccccc2sn1-c1ccc(S(=O)(=O)N2CCCC2)cc1 [2-(4-pyrrolidin-1-ylsulfonylphenyl)-1,2-benzothiazol-3-one] | 27 nM |
| Cc1cccc(N2CCN(C(=O)Cn3sc4nc(C)cc(C)c4c3=O)CC2C)c1 (configuration not stated) [2-[2-keto-2-[3-methyl-4-(m-tolyl)piperazino]ethyl]-4,6-dimethyl-isothiazolo[5,4-b]pyridin-3-one] | 110 nM |
| Cc1cccc(N2CCN(C(=O)COc3noc4nc(C)cc(C)c34)CC2C)c1 (configuration not stated) [2-[(4,6-dimethyl-[1,2]oxazolo[5,4-b]pyridin-3-yl)oxy]-1-[3-methyl-4-(3-methylphenyl)piperazin-1-yl]ethanone] | > 30000 nM |
| O=c1c2ccccc2sn1-c1ccccc1 [2-phenyl-1,2-benzothiazol-3-one] | > 30000 nM |
| CCN(CC)S(=O)(=O)c1cccc(-c2n[nH]c(=S)n2N=Cc2ccc(C(=O)OC)cc2)c1 [4-[(E)-[3-[3-(diethylsulfamoyl)phenyl]-5-thioxo-1H-1,2,4-triazol-4-yl]iminomethyl]benzoic acid methyl ester] | 940 nM |
| NS(=O)(=O)c1ccc(N=NCc2ccc(O)c(O)c2O)c([N+](=O)[O-])c1 [4-[[(E)-(2,3-dihydroxy-4-oxo-1-cyclohexa-2,5-dienylidene)methyl]hydrazo]-3-nitrobenzenesulfonamide] | 29 nM |
| CN=c1scc(C)n1N=Cc1ccc(O)c(O)c1O [(4E)-2,3-dihydroxy-4-[[(4-methyl-2-methylimino-1,3-thiazol-3-yl)amino]methylidene]cyclohexa-2,5-dien-1-one] | 511 nM |

Other lines, results leading:

| EC50 | Structure (SMILES) |
| --- | --- |
| 46 nM | Cc1[nH]n(-c2ccccc2)c(=S)c1/C=N/c1cccc([N+](=O)[O-])c1 [(4E)-5-methyl-4-[(3-nitroanilino)methylene]-2-phenyl-2-pyrazoline-3-thione] |
| > 30000 nM | Cc1cccc(N2CCN(C(=O)CN3CCc4nc(C)cc(C)c4C3=O)CC2C)c1 (configuration not stated) [KUC103675N] |
| 272 nM | CC(=O)OCCCNc1cc(Sc2nc3ccccc3s2)c2nonc2c1[N+](=O)[O-] [MLS000521052] |
| 53 nM | Cc1cc(Cl)ccc1/N=c1/ssnc1Cl [MLS000539990] |
| 121 nM | O=C1C(Cl)=C(N2CCCCC2)C(=O)C(Cl)=C1c1cnc(N2CCCCC2)s1 [MLS000550549] |
| 5220 nM | CCC(=O)NC(c1ccc(C)cc1)c1cc([N+](=O)[O-])c2cccnc2c1O (configuration not stated) [MLS000553854] |
| 151 nM | COc1ccc(C2=CC(=O)C=CC2=O)cc1 [MLS001029846] |
| 116 nM | O=C(COc1ccccc1C(=O)NN=Cc1ccc(O)c(O)c1)NN=Cc1ccc(O)c(O)c1 [N''-[(Z)-(3-hydroxy-4-oxo-1-cyclohexa-2,5-dienylidene)methyl]-2-[2-[[(Z)-(3-hydroxy-4-oxo-1-cyclohexa-2,5-dienylidene)methyl]hydrazo]-2-oxoethoxy]benzohydrazide] |
| 3510 nM | CC1(C)OC(=O)C(=Cc2ccc(-c3ccc(S(N)(=O)=O)cc3)o2)C(=O)O1 [SMR000273939] |
| 822 nM | O=C(Cc1csc(N2CCOCC2)n1)NN=Cc1ccc(O)c(O)c1O [SMR000369439] |
| > 30000 nM | Nc1c(C(=O)NCC2CCCO2)sc2nc3c(c(-c4ccco4)c12)CC/C3=C/c1ccco1 (configuration not stated) [UNM-0000305796] |

same assay, conditions: inactive by the depositor's call

| EC50 | Structure (SMILES) |
| --- | --- |
| 3680 nM | CCOc1ccccc1-c1c2cc(O)c(=O)cc-2oc2cc(O)c(O)cc12 [MLS000578271] |
